Measured values published in patent US20250129135A1, “Multi-Agonist and Use Thereof” (priority 2021, published 2025).
Starred links: 1 amine or outer side, 2 acyl side, 3 side chain; linkers in the order of their positions; H or OH if unused. Non-standard residues stand in square brackets, D forms with d. Residues, ends and D or L forms follow the SMILES beside them. Groups on a side chain read outwards from the residue. *: point of attachment. C20 diacid = O=C(O)CCCCCCCCCCCCCCCCCCC(=O)*; αMePhe(2-F) = C[C@](N)(Cc1ccccc1F)C(=O)O; γGlu = O=C(O)[C@H](CCC(=O)[*:2])N[*:1]; αMeL = CC(C)C[C@](C)(N)C(=O)O; AEEA = NCCOCCOCC(=O)O; Ac3c = NC1(C(=O)O)CC1; Aib = CC(C)(N)C(=O)O

Assays:
Human GCG R = target: T1, Human GCG R (Homo sapiens, UniProt P47871); assay: cAMP (HTRF) activity in HEK-293 cells stably overexpressing human GCG receptor; type: cell-based; conditions: for Human GCG R Rel. A (Relative Activity): EC50 of human GCG / EC50 of compound
T1 construct: expressed in transfected cells; host or cells: HEK-293
Protocol: (§1) By measuring the cAMP signal response levels of the aforementioned cells, the agonistic activity of individual compound towards the corresponding receptor was determined. The intracellular cAMP content was measured using reagent kit available from Cisbio Corp. based on HTRF (homogeneous time-resolved fluorescence) technology.
(§2) The cell fluid was transferred to 10 ml of HBSS for resuspension, and centrifuged at 1000 rpm for 5 minutes at room temperature.
(§3) 10 μL cell suspension was added to each well in the 384 well plate. […] Using the ECHO liquid transfer system, 100 nL of the prepared compound solution was added to the corresponding cell suspensions in the 384 well plate, rotated and shaken at 1000 rpm for 1 minute to mix evenly, and then incubated at room temperature for 60 minutes. 10 μL of detection reagent was added to each well after drug incubation was completed, and incubation was performed in the kit at room temperature for 60 minutes. […] GraphPad Prism 5 plotting software was used to create compound concentration response curves and EC50 (nM) values was calculated.

RIN-m5F cells = type: cell-based, rat; conditions: for Rel. A (Relative Activity) on RIN-m5F: relative to GLP-1(7-37)
Protocol: This experiment measured the cAMP level produced by the compound on RIN-mF cells.
Frozen […] cells were placed in a 37° C. constant temperature water bath for rapid thawing and recovery. The cell solution was transferred to 10 ml of HBSS for resuspension, and centrifuged at 1000 rpm for 5 minutes at room temperature.
10 μL cell suspension was added to each well in the 384 well plate. […] Using the ECHO liquid transfer system, 100 nL of the prepared compound solution was added to the corresponding cell suspensions in the 384 well plate, rotated and shaken at 1000 rpm for 1 minute to mix evenly, and then incubated at room temperature for 60 minutes. 10 μL of detection reagent was added to each wells after drug incubation was completed, and incubation was performed for 60 minutes.

Human GIP R = target: T2, Human GIP R (Homo sapiens, UniProt P48546); assay: cAMP (HTRF) activity in CHO cells stably overexpressing GIP receptor; type: cell-based; conditions: for Human GIP R Rel. A (Relative Activity): EC50 of human GIP / EC50 of compound; for EC50: stable transfected cell cAMP activity, at least 3 independent tests
T2 construct: expressed in transfected cells; host or cells: CHO
T2 sequence (P48546 22-466): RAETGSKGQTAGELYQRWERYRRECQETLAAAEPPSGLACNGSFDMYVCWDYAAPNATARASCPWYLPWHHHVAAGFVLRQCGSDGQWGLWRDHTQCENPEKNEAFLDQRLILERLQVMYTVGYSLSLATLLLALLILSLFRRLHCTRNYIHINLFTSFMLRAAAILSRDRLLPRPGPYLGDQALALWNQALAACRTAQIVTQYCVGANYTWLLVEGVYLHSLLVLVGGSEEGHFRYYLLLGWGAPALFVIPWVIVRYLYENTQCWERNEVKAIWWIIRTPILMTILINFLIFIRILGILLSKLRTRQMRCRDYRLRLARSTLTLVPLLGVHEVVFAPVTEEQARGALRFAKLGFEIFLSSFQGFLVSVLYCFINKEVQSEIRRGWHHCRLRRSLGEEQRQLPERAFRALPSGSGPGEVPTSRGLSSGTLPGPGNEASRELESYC
Protocol: as §1, §2, §3

Human GLP-1R = Human GLP-1R (Homo sapiens, UniProt P43220); assay: cAMP (HTRF) activity in HEK-293 cells stably overexpressing human GLP-1 receptor; type: cell-based; design: expressed in transfected cells; host or cells: HEK-293; conditions: for Human GLP-1R Rel. A (Relative Activity): EC50 of human GLP-1 (7-37) / EC50 of compound; for EC50: stable transfected cell cAMP activity, at least 3 independent tests
Protocol: as §1, §2, §3

[1] = system: human primary liver cells; type: cell-based; conditions: for Rel. A (Relative Activity) on human primary liver cells: relative to GCG
Protocol: The cAMP levels produced by compounds on human primary liver cells were determined in this experiment. Human primary liver cells were purchased from Lonza (cell product number HUCPG).
Frozen human primary liver cells were placed in a 37° C. constant temperature water bath for rapid thawing and recovery. The cell solution was transferred to 10 ml of HBSS for resuspension, and centrifuged at 1000 rpm for 5 minutes at room temperature.
10 μL cell suspension was added to each well in the 384 well plate. […] Using the ECHO liquid transfer system, 100 nL of the prepared compound solution was added to the corresponding cell suspensions in the 384 well plate, rotated and shaken at 1000 rpm for 1 minute to mix evenly, and then incubated at room temperature for 60 minutes. 10 μL of detection reagent was added to each well after drug incubation was completed, and incubation was performed for 60 minutes.

3T3-L1 adipocytes = conditions: for Rel. A (Relative Activity) on 3T3-L1 adipocyte: relative to GIP
Summary of the method: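 Mouse 3T3-L1 preadipocytes were differentiated with IBMX, dexamethasone and insulin for 5 days, then insulin plus 10 uM rosiglitazone for 3 days, then 10% FBS medium for 2–3 days. Mature adipocytes received 10-point, 3-fold compound dilutions for 60 min at room temperature. cAMP was read by kit detection reagent after a further 60 min, with concentration-effect curves fitted.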

T1 sequence (P47871 26-477): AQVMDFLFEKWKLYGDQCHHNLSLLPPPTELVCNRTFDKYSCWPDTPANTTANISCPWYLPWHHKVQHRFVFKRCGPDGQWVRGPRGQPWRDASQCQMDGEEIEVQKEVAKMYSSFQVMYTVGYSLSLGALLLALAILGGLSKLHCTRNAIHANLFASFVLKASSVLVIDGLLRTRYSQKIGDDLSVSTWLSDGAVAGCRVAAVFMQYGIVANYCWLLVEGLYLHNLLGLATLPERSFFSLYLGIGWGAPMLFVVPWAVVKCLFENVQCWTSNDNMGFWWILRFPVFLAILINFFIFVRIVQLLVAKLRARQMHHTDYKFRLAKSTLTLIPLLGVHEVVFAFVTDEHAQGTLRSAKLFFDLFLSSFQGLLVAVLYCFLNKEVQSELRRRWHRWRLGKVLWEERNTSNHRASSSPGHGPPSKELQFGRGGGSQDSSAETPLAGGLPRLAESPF
Chain of Human GLP-1R (P43220 24-463): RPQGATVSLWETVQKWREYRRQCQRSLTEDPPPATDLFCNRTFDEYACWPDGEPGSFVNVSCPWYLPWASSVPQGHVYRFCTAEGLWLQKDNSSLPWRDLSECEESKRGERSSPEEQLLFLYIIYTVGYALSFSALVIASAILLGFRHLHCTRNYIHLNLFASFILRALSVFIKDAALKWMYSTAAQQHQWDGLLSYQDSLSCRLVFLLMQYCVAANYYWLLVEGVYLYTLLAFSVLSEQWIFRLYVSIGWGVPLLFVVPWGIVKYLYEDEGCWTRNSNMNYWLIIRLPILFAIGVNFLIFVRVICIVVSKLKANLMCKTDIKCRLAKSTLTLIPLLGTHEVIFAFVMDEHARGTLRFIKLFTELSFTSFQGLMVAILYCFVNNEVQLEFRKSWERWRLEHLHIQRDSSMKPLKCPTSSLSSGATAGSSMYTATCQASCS

SMILES: CC[C@H](C)[C@H](NC(=O)[C@H](Cc1ccccc1)NC(=O)[C@H](C)NC(=O)C(C)(C)NC(=O)[C@H](CCC(N)=O)NC(=O)[C@H](C)NC(=O)[C@H](CCCCNC(=O)COCCOCCNC(=O)COCCOCCNC(=O)CC[C@H](NC(=O)CCCCCCCCCCCCCCCCCCC(=O)O)C(=O)O)NC(=O)[C@H](CCCCN)NC(=O)[C@H](CC(=O)O)NC(=O)[C@H](CC(C)C)NC(=O)[C@](C)(CC(C)C)NC(=O)[C@@H](NC(=O)[C@H](CO)NC(=O)[C@H](Cc1ccc(O)cc1)NC(=O)[C@H](CC(=O)O)NC(=O)[C@H](CO)NC(=O)[C@@H](NC(=O)[C@](C)(Cc1ccccc1F)NC(=O)[C@@H](NC(=O)CNC(=O)[C@H](CCC(N)=O)NC(=O)C(C)(C)NC(=O)[C@@H](N)Cc1ccc(O)cc1)[C@@H](C)O)[C@@H](C)O)[C@@H](C)CC)C(=O)N[C@@H](CCC(=O)O)C(=O)N[C@@H](Cc1ccc(O)cc1)C(=O)N[C@@H](CC(C)C)C(=O)N[C@@H](CC(C)C)C(=O)N[C@@H](CCC(=O)O)C(=O)N[C@H](C(=O)NCC(=O)N1CCC[C@H]1C(=O)N[C@@H](CO)C(=O)N[C@@H](CO)C(=O)NCC(=O)N[C@@H](CCC(N)=O)C(=O)N1CCC[C@H]1C(=O)N1CCC[C@H]1C(=O)NC1(C(=O)N[C@@H](CO)C(N)=O)CC1)[C@@H](C)O [Compound 34] (H-Y[Aib]QGT[αMePhe(2-F)]TSDYSI[αMeL]LDKK([AEEA-AEEA-γGlu-C20 diacid])AQ[Aib]AFIEYLLETGPSSGQPP[Ac3c]S-NH2; N-terminus assumed)
- Human GCG R Rel. A (Relative Activity) (Human GCG R): 150.00%
- EC50 (RIN-m5F cells): 0.879 nM
- Rel. A (Relative Activity) on RIN-m5F (RIN-m5F cells): 117.41%
- Human GIP R Rel. A (Relative Activity) (Human GIP R): 3620.00%
- EC50 (Human GIP R): 0.005 nM
- Human GLP-1R Rel. A (Relative Activity) (Human GLP-1R): 191.30%
- EC50 (Human GLP-1R): 0.023 nM
- EC50 [1]: 0.537 nM
- Rel. A (Relative Activity) on human primary liver cells [1]: 724.58%
- EC50 (3T3-L1 adipocytes): 2.3 nM
- Rel. A (Relative Activity) on 3T3-L1 adipocyte (3T3-L1 adipocytes): 165.52%

SMILES: CC[C@H](C)[C@H](NC(=O)[C@H](Cc1ccccc1)NC(=O)[C@H](C)NC(=O)C(C)(C)NC(=O)[C@H](CCC(N)=O)NC(=O)[C@H](C)NC(=O)[C@H](CCCCNC(=O)COCCOCCNC(=O)COCCOCCNC(=O)CC[C@H](NC(=O)CCCCCCCCCCCCCCCCCCC(=O)O)C(=O)O)NC(=O)[C@H](CCCCN)NC(=O)[C@H](CC(=O)O)NC(=O)[C@H](CC(C)C)NC(=O)[C@](C)(CC(C)C)NC(=O)[C@@H](NC(=O)[C@H](CO)NC(=O)[C@H](Cc1ccc(O)cc1)NC(=O)[C@H](CC(=O)O)NC(=O)[C@H](CO)NC(=O)[C@@H](NC(=O)[C@](C)(Cc1ccccc1F)NC(=O)[C@@H](NC(=O)CNC(=O)[C@H](Cc1c[nH]cn1)NC(=O)C(C)(C)NC(=O)[C@@H](N)Cc1ccc(O)cc1)[C@@H](C)O)[C@@H](C)O)[C@@H](C)CC)C(=O)N[C@@H](CCC(=O)O)C(=O)N[C@@H](Cc1ccc(O)cc1)C(=O)N[C@@H](CC(C)C)C(=O)N[C@@H](CC(C)C)C(=O)N[C@@H](CCC(=O)O)C(=O)NC(C)(C)C(=O)N[C@@H](Cc1c[nH]cn1)C(=O)N1CCC[C@H]1C(=O)N[C@@H](CO)C(=O)N[C@@H](CO)C(=O)NCC(=O)N[C@@H](CCC(N)=O)C(=O)N1CCC[C@H]1C(=O)N1CCC[C@H]1C(=O)N1CCC[C@H]1C(=O)N[C@@H](CO)C(N)=O [Compound 6] (H-Y[Aib]HGT[αMePhe(2-F)]TSDYSI[αMeL]LDKK([AEEA-AEEA-γGlu-C20 diacid])AQ[Aib]AFIEYLLE[Aib]HPSSGQPPPS-NH2; N-terminus assumed)
- Human GCG R Rel. A (Relative Activity) (Human GCG R): 98.28%
- EC50 (Human GCG R; stable transfected cell cAMP activity, at least 3 independent tests): 0.058 nM
- EC50 (RIN-m5F cells): 1.59 nM
- Rel. A (Relative Activity) on RIN-m5F (RIN-m5F cells): 64.74%
- Human GIP R Rel. A (Relative Activity) (Human GIP R): 1292.86%
- EC50 (Human GIP R): 0.014 nM
- Human GLP-1R Rel. A (Relative Activity) (Human GLP-1R): 220.00%
- EC50 (Human GLP-1R): 0.02 nM
- EC50 [1]: 0.299 nM
- Rel. A (Relative Activity) on human primary liver cells [1]: 1301.34%
- EC50 (3T3-L1 adipocytes): 1.01 nM
- Rel. A (Relative Activity) on 3T3-L1 adipocyte (3T3-L1 adipocytes): 374.58%

SMILES: CC[C@H](C)[C@H](NC(=O)[C@H](Cc1ccccc1)NC(=O)[C@H](C)NC(=O)C(C)(C)NC(=O)[C@H](CCC(N)=O)NC(=O)[C@H](C)NC(=O)[C@H](CCCCNC(=O)COCCOCCNC(=O)COCCOCCNC(=O)CC[C@H](NC(=O)CCCCCCCCCCCCCCCCCCC(=O)O)C(=O)O)NC(=O)[C@H](CCCCN)NC(=O)[C@H](CC(=O)O)NC(=O)[C@H](CC(C)C)NC(=O)[C@](C)(CC(C)C)NC(=O)[C@@H](NC(=O)[C@H](CO)NC(=O)[C@H](Cc1ccc(O)cc1)NC(=O)[C@H](CC(=O)O)NC(=O)[C@H](CO)NC(=O)[C@@H](NC(=O)[C@](C)(Cc1ccccc1F)NC(=O)[C@@H](NC(=O)CNC(=O)[C@H](CCC(N)=O)NC(=O)C(C)(C)NC(=O)[C@@H](N)Cc1ccc(O)cc1)[C@@H](C)O)[C@@H](C)O)[C@@H](C)CC)C(=O)N[C@@H](CCC(=O)O)C(=O)N[C@@H](Cc1ccccc1)C(=O)N[C@@H](CC(C)C)C(=O)N[C@@H](CC(C)C)C(=O)N[C@@H](CCC(=O)O)C(=O)NCC(=O)N[C@@H](CCCNC(=N)N)C(=O)N1CCC[C@H]1C(=O)N[C@@H](CO)C(=O)N[C@@H](CO)C(=O)NC(C)(C)C(=O)N[C@@H](Cc1c[nH]cn1)C(=O)N1CCC[C@H]1C(=O)N1CCC[C@H]1C(=O)N1CCC[C@H]1C(=O)N[C@@H](CO)C(N)=O [Compound 25]
- Human GCG R Rel. A (Relative Activity) (Human GCG R): 167.65%
- EC50 (RIN-m5F cells): 0.202 nM
- Rel. A (Relative Activity) on RIN-m5F (RIN-m5F cells): 510.89%
- Human GIP R Rel. A (Relative Activity) (Human GIP R): 1392.31%
- EC50 (Human GIP R): 0.013 nM
- Human GLP-1R Rel. A (Relative Activity) (Human GLP-1R): 141.94%
- EC50 [1]: 0.649 nM
- Rel. A (Relative Activity) on human primary liver cells [1]: 599.54%
- EC50 (3T3-L1 adipocytes): 0.918 nM
- Rel. A (Relative Activity) on 3T3-L1 adipocyte (3T3-L1 adipocytes): 414.16%
